A short description of data set [1]: Stability of inhibitors under the assay conditions. Particulars: HEPES pH 8.0, 37 °C, HPLC analysis, data not shown.
In data set [2] the target is T1, DXP synthase (Escherichia coli, UniProt P77488). As to the kind of experiment: DXP synthase inhibition, continuous spectrophotometric IspC-coupled assay. The class given is biochemical, E. coli. Particulars: for mode of inhibition with respect to D-GAP / mode of inhibition with respect to pyruvate: model discrimination analysis (AIC).
For data set [3] the following is noted: pH 8.
For data set [4], the target named is T1, DXP synthase. As to the kind of experiment: DXP synthase inhibitory activity in the presence of BME or ascorbic acid. Format: biochemical, E. coli. The note with it: inhibitor 50 µM.
Data set [5] is described as follows: 13C NMR monitoring of oxime 8 at pH 8. Format: physicochemical. The note with it: pH 8, 24 hours.
The target of data set [6] is T1, DXP synthase. Nature of the data set: Rapid dilution experiment. The class given is biochemical, E. coli. The note with it: pre-incubation 15 or 30 min.
Data set [7] deals with DXP synthase. The note with it: cited from earlier work.

We go through 15 molecules from paper PMC4609000 (Chembiochem : a European journal of chemical biology, 2015).

SMILES strings stand for the structures. “Also recorded” adds a separate entry of the source. Read-outs that look alike come from different tables or passages of the source.

T1 sequence (P77488 whole entry): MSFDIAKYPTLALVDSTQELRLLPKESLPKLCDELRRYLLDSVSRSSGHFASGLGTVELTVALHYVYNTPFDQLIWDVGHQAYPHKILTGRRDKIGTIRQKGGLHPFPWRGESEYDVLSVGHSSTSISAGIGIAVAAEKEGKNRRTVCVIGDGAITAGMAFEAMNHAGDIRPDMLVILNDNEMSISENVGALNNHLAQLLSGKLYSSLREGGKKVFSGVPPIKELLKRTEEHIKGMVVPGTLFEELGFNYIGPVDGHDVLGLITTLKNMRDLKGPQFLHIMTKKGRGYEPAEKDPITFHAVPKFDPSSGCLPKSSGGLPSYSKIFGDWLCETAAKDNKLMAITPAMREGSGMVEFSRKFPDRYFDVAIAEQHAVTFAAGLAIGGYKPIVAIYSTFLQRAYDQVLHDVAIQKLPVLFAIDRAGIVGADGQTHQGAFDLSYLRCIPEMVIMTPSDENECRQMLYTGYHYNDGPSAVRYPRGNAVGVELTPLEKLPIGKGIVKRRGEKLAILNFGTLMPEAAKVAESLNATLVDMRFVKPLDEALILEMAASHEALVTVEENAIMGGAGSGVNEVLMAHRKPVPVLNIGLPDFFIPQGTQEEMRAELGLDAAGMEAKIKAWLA

As for `CN/N=C/c1cc(O)c(O)cc1O` [Compound 11, (E)-5-((2-Methylhydrazono)methyl)benzene-1,2,4-triol], the “stability under the conditions of the assay” value (shortened to “stability under the conditions”) in data set [1] was “unstable”.
Consider `CONCc1cc(O)c(O)cc1O.Cl` [Compound 10, 5-((Methoxyamino)methyl)benzene-1,2,4-triol hydrochloride], for which the “stability under the conditions” value in data set [1] was “unstable”. Further, the Ki on DXP synthase [2] (evaluated in the presence of ascorbic acid (2.0 mM)) is greater than 75 µM.
On to `O=C([O-])/C=N/OCCO/N=C/c1cc(O)c(O)cc1O.[Na+]` [Compound 4, Sodium (1E,7E)-1-(2,4,5-trihydroxyphenyl)-3,6-dioxa-2,7-diazanona-1,7-dien-9-oate], for which, on DXP synthase [2], the “mode of inhibition with respect to D-GAP” value is “competitive” and the “mode of inhibition with respect to pyruvate” value is recorded as “noncompetitive”.
In the case of `O=Cc1cc(O)c(O)cc1O` [Compound 6, 2,4,5-trihydroxybenzaldehyde], the “stability under the conditions” value in data set [3] is “unstable”.
For the molecule `CO/N=C/c1cc(O)c(O)cc1O` [Compound 8, (E)-2,4,5-Trihydroxybenzaldehyde O-methyl oxime], the “inhibitory activity in the presence of BME” value on DXP synthase [4] (BME 0.5 mM) is “abolished; also recorded: abolishes inhibitory activity”. For the same molecule, the “inhibitory activity in the presence of ascorbic acid” value at DXP synthase [4] (ascorbic acid 2.0 mM) is recorded as “does not abolish inhibitory activity”. Further, the “quinone species observed by 13C NMR” value in data set [5] is given as “no observable quinone species”. Further, at DXP synthase [2], the “mode of inhibition with respect to pyruvate” value was “noncompetitive”. The “time dependence of inhibitory activity” value at DXP synthase [6] is recorded as “not time-dependent”.
Consider `CO/N=C/c1cccc([N+](=O)[O-])c1O` [Compound 21, (E)-2-Hydroxy-3-nitrobenzaldehyde O-methyl oxime], for which, at DXP synthase [2], affinity was put at a Ki of 47.8 ± 8.4 µM and the “mode of inhibition with respect to D-GAP” value is listed as “competitive”.
`CO/N=C/c1cc(O)c(O)c(O)c1` [Compound 17, (E)-3,4,5-Trihydroxybenzaldehyde O-methyl oxime]: on DXP synthase [2], the “mode of inhibition with respect to D-GAP” value is listed as “competitive”.
Turning to `Oc1cc(O)c(/C=N/OCCO/N=C/c2cc(O)c(O)cc2O)cc1O` [Compound 5, (1E,1'E)-O,O'-(Ethane-1,2-diyl)bis(1-(2,4,5-trihydroxyphenyl)-2,4,5-trihydroxybenzaldehyde oxime)], at DXP synthase [2], the “mode of inhibition with respect to D-GAP” value was “competitive” and the “mode of inhibition with respect to pyruvate” value is on record as “uncompetitive”.
On to `Oc1cc(O)c(/C=N/OCc2ccccc2)cc1O` [Compound 9, (E)-2,4,5-Trihydroxybenzaldehyde O-benzyl oxime], for which, at DXP synthase [2], the “mode of inhibition with respect to pyruvate” value is “noncompetitive”.
On DXP synthase [2], `CO/N=C/c1cc(O)c(O)c(OC)c1` [Compound 18, (E)-3,4-Dihydroxy-5-methoxybenzaldehyde O-methyl oxime] displayed an inhibition at 200 µM of 18%.
Regarding `CC1(C)C(=O)ON(Cc2ccccc2Cl)C1=O` [Ketoclomazone], on DXP synthase [7], the inhibitory constant (Ki) was 75 µM, the “mode of inhibition against D-GAP” value is given as “noncompetitive” and the “mode of inhibition with respect to pyruvate” value is recorded as “uncompetitive”.
For `CCCCOP(=O)(O)C(C)=O` [Butyl Acetyl Phosphonate], at DXP synthase [7], the Ki is 5.6 ± 0.8 µM.
Consider `CO/N=C/c1cc(O)c(O)cc1F` [Compound 22, (E)-2-Fluoro-4,5-dihydroxybenzaldehyde O-methyl oxime], for which the “stability under the conditions” value in data set [3] is listed as “unstable”. In addition, the “mode of inhibition with respect to D-GAP” value on DXP synthase [2] was “competitive”.
For `O/N=C/c1cc(O)c(O)cc1O` [Compound 7, (E)-2,4,5-Trihydroxybenzaldehyde oxime], at DXP synthase [2], the “mode of inhibition with respect to D-GAP” value is reported as “competitive” and the “mode of inhibition with respect to pyruvate” value is recorded as “uncompetitive”.
As to `CO/N=C/c1cc(F)c(F)cc1O` [Compound 23, (E)-4,5-Difluoro-2-hydroxybenzaldehyde O-methyl oxime], the “inhibitory activity” value on DXP synthase [2] (up to 100 µM) is recorded as “minimally active”.
